We go through 1 molecule from ChEMBL document CHEMBL5214954, “Identification of PI3K/HDAC Dual-targeted inhibitors with subtype selectivity as potential therapeutic agents against solid Tumors: Building HDAC6 potency in a Quinazolinone-based PI3Kδ-selective template” (Bioorg Med Chem, 2022).

Series [1] relates to SU-DHL-6. The experiment in a line: Antiproliferative activity against human SU-DHL-6 cells incubated for 72 hrs by CCK-8 assay. The format is functional, cell-based. Conditions: SU-DHL-6, 72 h. A general note: Tetrazolium assays rely on reduction of a dye to a coloured formazan, in cell work by metabolically active cells.
A short description of series [2]: Cytotoxicity against HUVEC cells incubated for 72 hrs by CCK-8 assay. The settings on record: human.
Series [3] is filed under the species Homo sapiens. The experiment in a line: Selectivity ratio, ratio IC50 for inhibition of PI3Kalpha (unknown origin) to IC50 for inhibition of PI3Kdelta (unknown origin).
The subject of series [4] is T47D. The experiment in a line: Downregulation of pSTAT3 expression in IL-6-stimulated human T47D cells at 10 to 1000 nM measured by western blot analysis. Format: functional, cell-based. The settings on record: dose 10-1000 nM, DDE = dose-dependent effect. For orientation: A western blot detects proteins with antibodies after separation by electrophoresis.
Series [5] in a line: Half life in male Sprague-Dawley rat at 2 mg/kg, iv measured upto 24 hrs by LC-MS/MS analysis. Format: ADME, organism-based. Conditions: in vivo.
The nature of series [6]: Cmax in male Sprague-Dawley rat at 2 mg/kg, iv measured upto 24 hrs by LC-MS/MS analysis. The format is ADME, organism-based. The settings on record: in vivo. Further details: time < 24 hrs, dose 2 mg/kg, route iv.
Series [7] is described as follows: AUC (0 to infinity) in male Sprague-Dawley rat at 2 mg/kg, iv measured upto 24 hrs by LC-MS/MS analysis. The format is ADME, organism-based. Further details: time < 24 hrs, dose 2 mg/kg, route iv. Conditions: in vivo.
Series [8] is described as follows: Apparent volume of distribution in male Sprague-Dawley rat at 2 mg/kg, iv measured upto 24 hrs by LC-MS/MS analysis. Format: ADME, organism-based. Conditions: in vivo, read-out: Vz.
For series [9], the target named is T1, Protein deacetylase HDAC6 (Homo sapiens, UniProt Q9UBN7).
T1 sequence (Q9UBN7 whole entry): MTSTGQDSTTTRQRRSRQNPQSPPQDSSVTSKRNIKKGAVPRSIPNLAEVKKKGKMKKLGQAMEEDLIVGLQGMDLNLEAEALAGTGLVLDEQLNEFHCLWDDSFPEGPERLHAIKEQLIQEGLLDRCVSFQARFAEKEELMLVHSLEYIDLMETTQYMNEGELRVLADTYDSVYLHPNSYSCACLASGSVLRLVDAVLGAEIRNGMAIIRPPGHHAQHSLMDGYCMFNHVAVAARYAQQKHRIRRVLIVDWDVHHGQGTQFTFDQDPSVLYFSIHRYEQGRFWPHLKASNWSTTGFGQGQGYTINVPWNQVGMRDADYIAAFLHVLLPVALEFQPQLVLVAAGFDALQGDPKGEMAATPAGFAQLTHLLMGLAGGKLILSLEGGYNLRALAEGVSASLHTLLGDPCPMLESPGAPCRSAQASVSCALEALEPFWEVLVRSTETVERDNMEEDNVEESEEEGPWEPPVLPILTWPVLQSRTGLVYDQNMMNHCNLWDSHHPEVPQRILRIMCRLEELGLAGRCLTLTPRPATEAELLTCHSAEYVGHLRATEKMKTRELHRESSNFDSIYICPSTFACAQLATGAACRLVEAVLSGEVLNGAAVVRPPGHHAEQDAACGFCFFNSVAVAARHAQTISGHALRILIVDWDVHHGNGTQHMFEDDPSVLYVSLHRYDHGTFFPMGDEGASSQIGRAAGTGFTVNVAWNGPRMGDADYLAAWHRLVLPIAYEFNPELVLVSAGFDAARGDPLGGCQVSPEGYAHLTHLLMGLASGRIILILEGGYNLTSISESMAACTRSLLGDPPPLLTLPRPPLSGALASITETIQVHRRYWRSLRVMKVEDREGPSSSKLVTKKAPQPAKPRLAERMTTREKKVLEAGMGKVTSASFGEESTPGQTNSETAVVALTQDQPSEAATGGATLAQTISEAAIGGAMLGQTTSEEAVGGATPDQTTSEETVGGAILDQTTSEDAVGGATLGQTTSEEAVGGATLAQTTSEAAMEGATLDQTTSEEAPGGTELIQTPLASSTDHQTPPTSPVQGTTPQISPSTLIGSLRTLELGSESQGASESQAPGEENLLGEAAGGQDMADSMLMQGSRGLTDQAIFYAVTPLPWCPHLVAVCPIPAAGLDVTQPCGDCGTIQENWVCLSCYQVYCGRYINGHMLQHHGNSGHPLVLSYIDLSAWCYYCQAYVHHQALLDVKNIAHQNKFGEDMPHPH
Description: Inhibition of HDAC6 (unknown origin) measured by fluorescence based assay

For series [10], the target named is T2, Histone deacetylase 8 (Homo sapiens, UniProt Q9BY41).
T2 sequence (Q9BY41 whole entry): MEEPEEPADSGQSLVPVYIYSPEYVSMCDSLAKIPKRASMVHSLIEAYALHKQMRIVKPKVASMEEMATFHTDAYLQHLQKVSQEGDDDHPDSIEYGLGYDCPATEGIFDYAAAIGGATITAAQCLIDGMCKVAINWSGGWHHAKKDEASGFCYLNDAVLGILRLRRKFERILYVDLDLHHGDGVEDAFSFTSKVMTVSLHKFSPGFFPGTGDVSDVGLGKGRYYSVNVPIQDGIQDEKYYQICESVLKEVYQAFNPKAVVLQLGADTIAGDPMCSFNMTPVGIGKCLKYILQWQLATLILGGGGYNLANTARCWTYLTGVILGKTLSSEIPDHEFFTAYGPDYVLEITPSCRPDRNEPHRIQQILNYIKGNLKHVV
Description: Inhibition of HDAC8 (unknown origin) measured by fluorescence based assay

Regarding `N#Cc1c(N)nc(N)nc1N1CC2(CC2)C[C@H]1c1nc2cccc(Cl)c2c(=O)n1Cc1ccc(C(=O)NO)s1`, the IC50 (as a rule, the concentration at which inhibition is half-maximal) was 150 nM in [1], 13 nM in [9] and greater than 5000 nM in [10]. Besides, 37000 nM corresponded to half-maximal inhibition in series [2] (IC50 at 72 h). In addition, in [3], the Ratio IC50 came out at 73. Also, the Activity entry in series [4] is “Dde”. Also, in series [5], the half-life – broadly, how long it takes for the measured level to halve – is 27.6 min. Moreover, in series [6], the maximum concentration (Cmax) (commonly the peak of the concentration-time curve) is 2120 ng/mL. Further, the AUC(0-inf) (as a rule, the area under the concentration-time curve extrapolated to infinity) in [7] stood at 632 ng·h/mL. In addition, in series [8], the Vd came out at 2.09 L/kg.
